Literature values, collected in US20210315248A1, “SYSTEM AND METHOD FOR HOVENIA DULCIS EXTRACTION” (82 Labs Inc., priority 2020, published 2021).

Columns and labels:
[1] = parameters: key: ability to form inclusion complexes, as indicated by a “+”; details: guest molecule with β-cyclodextrin
[2] = parameters: key: ability to form inclusion complexes, as indicated by a “+”; details: guest molecule with γ-cyclodextrin
[3] = parameters: key: ability to form inclusion complexes, as indicated by a “+”; details: guest molecule with α-cyclodextrin
[4] = not given; remark: listed apart in the source

Row | Structure (SMILES) | ability to form inclusion complexes with β-CD [1] | ability to form inclusion complexes with γ-CD [2] | ability to form inclusion complexes with α-CD [3] | also measured
1 | c1ccc2ccccc2c1 [Naphthalene] | + | + |  | 
2 | C1CCCCC1 [Cyclohexane] | + | + | + | 
3 | [Xe] [Xenon] |  |  | + | 
4 | CCC(=O)O [Propionic acid] |  |  | + | 
5 | CCCC(=O)O [Butyric acid] | + |  | + | 
6 | c1ccc2cc3ccccc3cc2c1 [Anthracene] |  | + |  | 
7 | O=C1c2c(O)cc(O)cc2O[C@H](c2cc(O)c(O)c(O)c2)[C@H]1O [DHM, (2R,3R)-3,5,7-trihydroxy-2-(3,4,5-trihydroxyphenyl)-2,3-dihydrochromen-4-one] |  |  |  | permeability Peff: (1.84±0.37)×10^−6 cm/s
8 | OC[C@H]1O[C@@H]2O[C@H]3[C@H](O)[C@@H](O)[C@@H](O[C@H]4[C@H](O)[C@@H](O)[C@@H](O[C@H]5[C@H](O)[C@@H](O)[C@@H](O[C@H]6[C@H](O)[C@@H](O)[C@@H](O[C@H]7[C@H](O)[C@@H](O)[C@@H](O[C@H]1[C@H](O)[C@H]2O)O[C@@H]7CO)O[C@@H]6CO)O[C@@H]5CO)O[C@@H]4CO)O[C@@H]3CO [α-Cyclodextrin, α-cyclodextrin] |  |  |  | pKa value (25° C.) [4]: 12.331
